From patent publication EP2241565A1, “Aurora kinase inhibitors compounds” (Universität Leipzig, priority 2009, dated 2010) come the findings set out here.

For one test, the system named is HeLa cells. Kind of test: Fixed cell analysis of mitotic phenotypes (fluorescence / immunofluorescence). It counts as cell-based, human. To be noted: 40 µM, 24 h. On the procedure:
For fixed cell analysis, HeLa or H2B-GFP/mRFP-αTubulin HeLa cells were grown on glass coverslips and treated as described above. Cells were fixed in ice cold methanol and mounted in Mowiol. Alternatively, non fluorescent HeLa were treated and subjected to immunofluorescence with anti-tubulin antibodies (Sigma, DM1A) and Hoechst to stain the DNA. Cells were observed on a Leica DM16000B microscope with the HCX PL APO CS 63x 1.4 objective. Images were taken with a Leica DFC 350FX camera, controlled by Leica Application Suit (LAS-AF 6000) software and processed with Adobe Photoshop.
To get a better idea about the defects causing cell division failure in cells treated with (C), we examined fixed cells to better visualize the chromosomes and the microtubules. […] In parallel, standard HeLa cells were treated in the same way. The cells were fixed and processed for immunofluorescence with anti-tubulin antibodies to visualize the microtubules and Hoechst to stain the DNA.

For another test, the target named is T1, Tie2 (Homo sapiens, UniProt Q02763).
T1 construct: GST (N); purchased Biomol
T1 sequence (Q02763 23-1124, species assumed): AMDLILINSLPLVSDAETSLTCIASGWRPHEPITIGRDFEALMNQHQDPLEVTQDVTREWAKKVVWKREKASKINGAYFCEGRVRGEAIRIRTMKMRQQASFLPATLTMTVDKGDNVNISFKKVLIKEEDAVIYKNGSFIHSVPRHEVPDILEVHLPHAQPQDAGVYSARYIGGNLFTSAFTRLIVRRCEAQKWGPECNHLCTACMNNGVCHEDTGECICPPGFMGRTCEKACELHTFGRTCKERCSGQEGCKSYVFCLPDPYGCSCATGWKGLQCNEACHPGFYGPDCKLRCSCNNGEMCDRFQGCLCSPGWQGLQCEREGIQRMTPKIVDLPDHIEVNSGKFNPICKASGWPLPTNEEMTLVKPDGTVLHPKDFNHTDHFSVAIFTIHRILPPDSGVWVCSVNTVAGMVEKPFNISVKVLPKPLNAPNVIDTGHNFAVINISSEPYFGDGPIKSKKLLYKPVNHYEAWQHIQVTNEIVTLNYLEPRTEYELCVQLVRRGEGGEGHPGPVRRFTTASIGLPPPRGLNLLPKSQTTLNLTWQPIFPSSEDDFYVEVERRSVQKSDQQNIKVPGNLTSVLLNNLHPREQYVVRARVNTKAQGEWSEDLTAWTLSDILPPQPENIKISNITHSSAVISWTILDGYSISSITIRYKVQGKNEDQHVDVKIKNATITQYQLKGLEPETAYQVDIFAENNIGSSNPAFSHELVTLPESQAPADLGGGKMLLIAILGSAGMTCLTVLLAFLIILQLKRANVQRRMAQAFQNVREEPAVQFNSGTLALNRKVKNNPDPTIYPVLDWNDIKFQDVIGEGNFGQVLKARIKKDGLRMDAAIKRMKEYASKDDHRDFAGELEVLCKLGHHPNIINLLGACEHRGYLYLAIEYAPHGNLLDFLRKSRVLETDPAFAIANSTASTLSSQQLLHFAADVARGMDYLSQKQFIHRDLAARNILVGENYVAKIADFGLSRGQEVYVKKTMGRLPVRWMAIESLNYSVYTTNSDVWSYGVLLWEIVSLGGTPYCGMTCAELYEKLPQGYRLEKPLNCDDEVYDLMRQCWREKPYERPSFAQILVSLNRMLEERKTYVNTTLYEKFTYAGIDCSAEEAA
Kind of test: RTK-Assay (ELISA, chemiluminescence). To be noted: read-out: IC50 Tie-2. Type of test: biochemical. On the procedure: (§1) To determine the IC50 of receptor-tyrosine-kinase an assay based on the ELISA-principle using kinases from Biomol (N-terminally fused to GST), POD-coupled antibody from Calbiochem (PY20) and BM chemiluminescence ELISA substrate from Roche was followed.
(§2) In short, a white 96 wells microplate was incubated overnight with 100 µl/well of the substrate solution (poly-Glu-Tyr diluted with PBS to 100 µg/ml) at 4 °C. The solution was removed and the plate was washed twice for 2 min with PBS-T. Afterwards the kinase solution (50 µl/well)( KDR (VEGFR2), 5 ng; Flt4 (VEGFR3), 20 ng; EGFR, 5 ng; IGFR, 15 ng; FGFR, 10 ng and Tie2, 20 ng) and the inhibitor solution (25 µl/well) were added to each well. To perform positive and negative control, 5% aqueous DMSO (25 µl/well) were used instead of inhibitor solution. Addition of ATP solution (25 µl/well) started the reaction, whereas 40 mM MnCl2 solution (25 µl/well) was added to the negative control instead of ATP. After incubation under mild shaking conditions for 30 min at rt the plate was washed with PBS-T (3 x 2 min) and subsequently incubated with antibody solution (anti-Phosphotyrosine-antibody (POD-coupled) diluted 1:10.000 in PBS-T + 0,2% (m/v) BSA)(100 µl/well) for 1 h again while shaking. In the end the plate was washed with PBS-T (3x5 min) and provided with the chemiluminescence substrate (50 µl/well). After 3 min the occurring luminescence was measured using a luminometer. A positive control was measured without inhibitor to determine the activity of the kinase, a negative control without inhibitor and ATP to abstract the background signal from the results. For determination of IC50 values, the relative luminescence units per second (RLU/s) were blotted against the inhibitor concentrations. In doing so each concentration measurement was done triplicate and at least 5 different inhibitor concentrations were used to determine IC50 value.
(§3) This assay is based on the ELISA-principle using kinases from Biomol (N-terminally fused to GST), POD-coupled antibody from Calbiochem (PY20) and BM chemiluminescence ELISA substrate from Roche.
(§4) Each well of a 96 well microplate (white, flat bottom, Greiner, Lumitrac600) was covered with a kinase polypeptide substrate containing glutamate and tyrosine. The substrate was incubated with a kinase, a defined inhibitor concentration and ATP. After kinase inhibitor depending phosphorylation of the substrate a POD-coupled antibody was added that selectively binds to phosphorylated tyrosine. Finally, a chemiluminescence reagent was added and light emission measured using an Orion Microplate Luminometer (Berthold).
(§5) The detected counts correlate directly with the amount of phosphorylated tyrosine and indirectly with the activity of the inhibitor.
(§6) A positive control was measured without inhibitor to determine the activity of the kinase, a negative control without inhibitor and ATP to abstract the background signal from the results. For determination of IC50 values, the relative luminescence units per second (RLU/s) were blotted against the inhibitor concentrations. In doing so each concentration measurement was done triplicate and at least 5 different inhibitor concentrations were used to determine IC50 value.
(§7) The following solutions were prepared for the receptor-tyrosine-kinase assay: - PBS (10x) 1 g KCl, 1 g KH2PO4, 40 g NaCl, 13.2 g Na2HPO4, ad 1 l H2O - PBST (1x) PBS 10x + 0,5% Tween20 → diluted 1:10 - substrate poly-Glu-Tyr 4:1 (10mg/ml in PBS) → diluted with PBS to 100µg/ml - kinase buffer 100mM HEPES, 100mM NaCl, 0.1mM Na3VO4 - kinase solution kinase buffer, kinase stock solution diluted to reach the following concentration defined in the table Table "kinase dilution" […]
A general note: ELISA stands for enzyme-linked immunosorbent assay.

Another test has as its target T2, Flt-4 (VEGFR3) (Homo sapiens, UniProt P35916).
T2 construct: GST (N); purchased Biomol
Put plainly: RTK-Assay (ELISA, chemiluminescence). To be noted: read-out: IC50 Flt-4 (VEGFR 3). Type of test: biochemical. Here is the method:
as §1, §2, §3, §4, §5, §6, §7

The target of a further test is T3, IGFR (Homo sapiens, UniProt P08069).
T3 construct: GST (N); purchased Biomol
T3 sequence (P08069 31-1367): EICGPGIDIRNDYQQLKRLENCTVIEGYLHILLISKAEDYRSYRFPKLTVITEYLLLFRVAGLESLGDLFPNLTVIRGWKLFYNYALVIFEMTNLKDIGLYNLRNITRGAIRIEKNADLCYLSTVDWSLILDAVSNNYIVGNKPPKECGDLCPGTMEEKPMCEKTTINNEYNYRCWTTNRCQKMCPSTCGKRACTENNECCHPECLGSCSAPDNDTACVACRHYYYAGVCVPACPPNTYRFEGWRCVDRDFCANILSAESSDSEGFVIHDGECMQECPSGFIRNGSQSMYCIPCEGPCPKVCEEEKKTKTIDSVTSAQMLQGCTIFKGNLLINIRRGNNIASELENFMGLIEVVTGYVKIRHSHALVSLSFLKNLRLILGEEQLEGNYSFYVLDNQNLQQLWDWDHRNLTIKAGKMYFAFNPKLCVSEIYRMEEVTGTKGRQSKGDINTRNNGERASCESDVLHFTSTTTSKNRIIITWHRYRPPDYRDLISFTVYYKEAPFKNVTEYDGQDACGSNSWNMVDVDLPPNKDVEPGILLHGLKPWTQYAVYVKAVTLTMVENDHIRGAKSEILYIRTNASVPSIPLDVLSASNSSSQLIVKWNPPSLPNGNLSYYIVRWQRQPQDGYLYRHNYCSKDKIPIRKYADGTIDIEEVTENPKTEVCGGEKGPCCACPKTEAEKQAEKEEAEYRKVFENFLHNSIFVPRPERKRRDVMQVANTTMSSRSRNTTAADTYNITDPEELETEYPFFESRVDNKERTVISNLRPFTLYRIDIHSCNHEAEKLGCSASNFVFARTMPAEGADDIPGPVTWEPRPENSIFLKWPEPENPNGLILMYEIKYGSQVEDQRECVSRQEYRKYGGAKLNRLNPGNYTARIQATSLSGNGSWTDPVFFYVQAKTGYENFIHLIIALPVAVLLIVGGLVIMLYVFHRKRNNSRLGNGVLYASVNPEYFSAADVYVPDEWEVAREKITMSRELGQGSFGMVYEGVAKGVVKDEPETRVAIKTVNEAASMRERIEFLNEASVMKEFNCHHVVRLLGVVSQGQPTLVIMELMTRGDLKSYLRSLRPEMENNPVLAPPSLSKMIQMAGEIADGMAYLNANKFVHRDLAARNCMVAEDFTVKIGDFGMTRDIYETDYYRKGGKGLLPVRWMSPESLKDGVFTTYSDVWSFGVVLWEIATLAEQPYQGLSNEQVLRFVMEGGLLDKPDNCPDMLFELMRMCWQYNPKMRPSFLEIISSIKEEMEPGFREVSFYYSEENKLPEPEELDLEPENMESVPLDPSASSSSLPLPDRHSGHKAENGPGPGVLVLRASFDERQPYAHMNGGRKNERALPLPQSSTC
Put plainly: RTK-Assay (ELISA, chemiluminescence). It counts as biochemical. On the procedure:
as §1, §2, §3, §4, §5, §6, §7

The target of another test is T4, EGFR (Homo sapiens, UniProt P00533).
T4 construct: GST (N); purchased Biomol
T4 sequence (P00533 25-1210, species assumed): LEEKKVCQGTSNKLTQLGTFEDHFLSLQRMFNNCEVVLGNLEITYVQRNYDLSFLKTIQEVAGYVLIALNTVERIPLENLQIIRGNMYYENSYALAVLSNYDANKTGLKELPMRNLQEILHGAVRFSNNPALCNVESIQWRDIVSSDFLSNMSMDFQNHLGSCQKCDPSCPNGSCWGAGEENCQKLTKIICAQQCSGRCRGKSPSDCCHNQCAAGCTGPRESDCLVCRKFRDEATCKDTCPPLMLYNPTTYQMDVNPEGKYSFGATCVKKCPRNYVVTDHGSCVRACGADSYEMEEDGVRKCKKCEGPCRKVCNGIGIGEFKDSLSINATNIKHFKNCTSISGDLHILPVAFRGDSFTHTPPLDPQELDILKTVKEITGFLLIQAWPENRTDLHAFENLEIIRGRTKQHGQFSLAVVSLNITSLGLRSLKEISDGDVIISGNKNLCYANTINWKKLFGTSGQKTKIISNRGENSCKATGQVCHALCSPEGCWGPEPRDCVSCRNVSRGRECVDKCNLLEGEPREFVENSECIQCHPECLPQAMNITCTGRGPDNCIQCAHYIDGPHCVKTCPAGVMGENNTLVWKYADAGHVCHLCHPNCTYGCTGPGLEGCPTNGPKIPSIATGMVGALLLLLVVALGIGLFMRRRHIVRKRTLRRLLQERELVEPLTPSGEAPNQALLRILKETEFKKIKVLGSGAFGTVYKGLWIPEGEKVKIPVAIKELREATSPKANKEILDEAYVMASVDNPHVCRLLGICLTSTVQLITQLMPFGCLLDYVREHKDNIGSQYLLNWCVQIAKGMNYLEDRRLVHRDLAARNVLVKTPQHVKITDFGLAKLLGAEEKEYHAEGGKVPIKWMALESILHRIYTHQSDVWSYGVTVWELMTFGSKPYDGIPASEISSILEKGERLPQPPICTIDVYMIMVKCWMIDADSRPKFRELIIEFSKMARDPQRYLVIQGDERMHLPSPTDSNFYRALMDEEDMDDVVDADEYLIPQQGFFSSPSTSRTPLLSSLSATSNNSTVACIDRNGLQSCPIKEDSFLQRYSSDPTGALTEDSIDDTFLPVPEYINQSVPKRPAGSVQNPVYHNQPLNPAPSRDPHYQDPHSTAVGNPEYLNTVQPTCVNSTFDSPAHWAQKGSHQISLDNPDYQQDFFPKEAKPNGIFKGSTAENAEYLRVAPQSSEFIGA
Put plainly: RTK-Assay (ELISA, chemiluminescence). Type of test: biochemical. Here is the method:
as §1, §2, §3, §4, §5, §6, §7

The target in the next test is T5, KDR (VEGFR2) (Homo sapiens, UniProt P35968).
T5 construct: GST (N); purchased Biomol
Put plainly: RTK-Assay (ELISA, chemiluminescence). It counts as biochemical. To be noted: read-out: IC50 KDR (VEGFR 2). On the procedure: as §1
as §2, with “A positive control was measured without inhibitor to determine the activity of the kinase, a negative control without inhibitor and ATP to abstract the background signal from the results.” left out
This assay is based on the ELISA-principle using kinases from Biomol (N-terminally fused to GST), POD-coupled antibody from Calbiochem (PY20) and BM chemiluminescence ELISA substrate from Roche. […]
For determination of IC50 values, the relative luminescence units per second (RLU/s) were blotted against the inhibitor concentrations. […]

“Also recorded” adds a separate entry of the source.

T2 sequence (P35916 25-1363, species assumed): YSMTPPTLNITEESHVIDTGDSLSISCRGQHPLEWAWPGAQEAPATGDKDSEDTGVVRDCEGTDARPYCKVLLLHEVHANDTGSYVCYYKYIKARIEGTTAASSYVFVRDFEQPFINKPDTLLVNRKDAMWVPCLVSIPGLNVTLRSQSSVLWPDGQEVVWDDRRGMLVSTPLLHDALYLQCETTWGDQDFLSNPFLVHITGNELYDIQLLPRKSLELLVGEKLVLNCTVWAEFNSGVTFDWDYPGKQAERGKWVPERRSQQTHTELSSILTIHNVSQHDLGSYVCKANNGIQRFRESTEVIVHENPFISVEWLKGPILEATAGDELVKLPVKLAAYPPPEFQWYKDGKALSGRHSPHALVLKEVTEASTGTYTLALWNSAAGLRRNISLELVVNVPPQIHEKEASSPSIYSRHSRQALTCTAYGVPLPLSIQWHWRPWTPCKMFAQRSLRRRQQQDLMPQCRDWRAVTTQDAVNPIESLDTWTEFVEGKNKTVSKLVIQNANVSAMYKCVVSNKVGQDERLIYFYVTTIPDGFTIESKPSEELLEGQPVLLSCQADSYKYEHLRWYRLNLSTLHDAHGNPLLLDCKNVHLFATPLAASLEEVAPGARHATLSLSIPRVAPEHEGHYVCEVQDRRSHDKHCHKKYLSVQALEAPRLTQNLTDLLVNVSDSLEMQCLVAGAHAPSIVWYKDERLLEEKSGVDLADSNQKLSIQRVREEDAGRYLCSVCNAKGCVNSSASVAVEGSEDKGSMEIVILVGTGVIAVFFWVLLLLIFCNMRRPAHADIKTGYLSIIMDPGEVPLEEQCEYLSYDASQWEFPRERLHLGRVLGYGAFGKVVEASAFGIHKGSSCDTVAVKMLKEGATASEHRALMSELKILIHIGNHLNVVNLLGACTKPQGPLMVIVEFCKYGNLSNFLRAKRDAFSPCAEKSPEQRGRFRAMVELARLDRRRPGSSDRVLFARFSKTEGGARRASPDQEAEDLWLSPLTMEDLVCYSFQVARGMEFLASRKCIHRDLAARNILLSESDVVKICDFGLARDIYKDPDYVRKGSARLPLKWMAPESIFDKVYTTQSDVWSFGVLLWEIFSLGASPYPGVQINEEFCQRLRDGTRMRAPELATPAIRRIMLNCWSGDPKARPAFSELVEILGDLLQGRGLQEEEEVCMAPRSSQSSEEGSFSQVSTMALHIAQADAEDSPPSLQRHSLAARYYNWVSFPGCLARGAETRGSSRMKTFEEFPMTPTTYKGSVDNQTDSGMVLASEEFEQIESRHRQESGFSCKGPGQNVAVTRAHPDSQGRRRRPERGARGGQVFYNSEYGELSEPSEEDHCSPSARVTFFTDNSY

One may read the IC50 as the concentration that gives 50% inhibition. As to `CC(C)Nc1nc(-c2ccco2)nc2ccc(C#CCO)cc12` [Compound (C), 3-(2-(Furan-2-yl)-4-(isoiproipylamino)quinazolin-6-yl)prop-2-yn-l-ol], the “mitotic phenotype of fixed cells” value with HeLa cells was “increased formation of multipolar spindles and other abnormal mitotic structures; also recorded: large proportion of abnormal mitotic spindles”. The IC50 on Tie2, on Flt-4 (VEGFR3), at IGFR, against EGFR and on KDR (VEGFR2) was more than 100 µM throughout.

Regarding `CC(C)Nc1nc(-c2ccco2)nc2ccc(/C=C/C(C)(C)O)cc12` [Compound (A), (E)-4-(2-(Furan-2-yl)-4-(isopropylamino)quinazolin-6-yl)-2-methylbut-3-en-2-ol], the IC50 on Tie2 is more than 100 µM; at Flt-4 (VEGFR3), 4.24 µM; against IGFR, 41.5 µM; on EGFR it was more than 100 µM.
